Laboratory results published in patent US20250326748A1, “COMPOUNDS AND METHODS FOR MODULATING SPLICING” (REMIX THERAPEUTICS INC., priority 2022, published 2025).
Where a name gives a salt, the structure may show the parent alone. Read-outs that look alike come from different tables or passages of the source.

Experiments:
[1] = tested on: HTT mRNA; test: Splicing RT-qPCR assay, HTT canonical (CJ) and alternative (AJ) junction mRNA; format: cell-based, human; conditions: Homo sapiens; for IC50: canonical junction mRNA; for AC50: alternative junction mRNA, read-out: HTT AJ (AC50, increase in AJ mRNA)
Procedure: (§1) Compounds described herein were used to modulate RNA transcript abundance in cells. The expression of a target mRNA was measured by detecting the formation of an exon-exon junction in the canonical transcript (CJ). A compound mediated exon-inclusion event was detected by observing an increase in formation of a new junction with an alternative exon (AJ). Real-time qPCR assays were used to detect these splicing switches and interrogate the potency of various compounds towards different target genes. A high-throughput real time quantitative PCR (RT-qPCR) assay was developed to measure these two isoforms of the mRNA (CJ and AJ) for exemplary genes, such as HTT, SMN2, and MYB, together with a control housekeeping gene, GAPDH or GUSB or PPIA, used for normalization. Briefly, the A673 or K562 cell line was treated with various compounds described herein (e.g., compounds of Formula (D). After treatment, the levels of the HTT, MYB, or SMN2 mRNA targets were determined from each sample of cell lysate by cDNA synthesis followed by qPCR.
(§2) • Cells-to-CT 1-step kit: ThermoFisher A25602, Cells-to-CT lysis reagent: ThermoFisher 4391851C, TaqMan™ Fast Virus 1-Step Master Mix: ThermoFisher 4444436 • GAPDH: VIC-PL, ThermoFisher 4326317E (Assay: Hs99999905_m1)—used for K562/suspension cell lines • GUSB: VIC-PL, ThermoFisher 4326320E (Assay: Hs99999908_m1)—used for K562/suspension cell lines • PPIA: VIC-PL, ThermoFisher 4326316E (Assay: Hs99999904_m1)—used for A673/adherent cell lines
(§3) The A673 cell line was cultured in DMEM with 10% FBS. Cells were diluted with full growth media and plated in a 96-well plate (15,000 cells in 100 ul media per well). The plate was incubated at 37° C. with 5% CO2 for 24 hours to allow cells to adhere. An 11-point 3-fold serial dilution of the compounds was made in DMSO then diluted in media in an intermediate plate. Compounds were transferred from the intermediate plate to the cell plate with the top dose at a final concentration of 10 uM in the well. Final DMSO concentration was kept at or below 0.25%. The cell plate was returned to the incubator at 37° C. with 5% CO2 for an additional 24 hours.
(§4) The K562 cell line was cultured in IMDM with 10% FBS. For K562, cells were diluted with full growth media and plated in either a 96-well plate (50,000 cells in 50 uL media per well) or a 384-well plate (8,000-40,000 cells in 45 uL media per well). An 11-point 3-fold serial dilution of the compounds were made in DMSO then diluted in media in an intermediate plate. Compound was transferred from the intermediate plate to the cell plate with the top dose at a final concentration of 10 uM in the well. Final DMSO concentration was kept at or below 0.25%. Final volume was 100 uL for 96-well plate and 50 uL for 384-well plate. The cell plate was then placed in an incubator at 37° C. with 5% CO2 for 24 hours.
(§5) The cells were then gently washed with 50 uL-100 uL cold PBS before proceeding to addition of lysis buffer. 30 uL-50 μL of room temperature lysis buffer with DNAse I (and optionally RNAsin) was added to each well. Cells were shaken/mixed thoroughly at room temperature for 5-10 minutes for lysis to take place and then 3 uL-5 μL of room temperature stop solution was added and wells were shaken/mixed again. After 2-5 minutes, the cell lysate plate was transferred to ice for RT-qPCR reaction setup. The lysates could also be frozen at −80° C. for later use.
(§6) In some cases, a direct lysis buffer was used. An appropriate volume of 3× lysis buffer (10 mM Tris, 150 mM NaCl, 1.5%-2.5% Igepal and 0.1-1 U/uL RNAsin, pH 7.4) was directly added to either K562 or A673 cells in media and mixed by pipetting 3 times. The plates were then incubated at room temperature with shaking/rocking for 20-50 minutes to allow for lysis to take place. After this time, the cell lysate plate was transferred to ice to set up for the RT-qPCR reactions. The lysates could also be frozen at −80° C. for later use. […]

[2] = tested on: Target C mRNA; test: Splicing RT-qPCR panel, Target C canonical junction (CJ) mRNA; format: cell-based, human; conditions: Homo sapiens, read-out: Target C CJ (decrease in CJ mRNA levels, IC50)
Procedure: as §1, §3, §4, §5
(§7) In some cases, a direct lysis buffer was used. An appropriate volume of 3× lysis buffer (10 mM Tris, 150 mM NaCl, 1.5%-2.5% Igepal and 0.1-1 U/uL RNAsin, pH 7.4) was directly added to either K562 or A673 cells in media and mixed by pipetting 3 times. The plates were then incubated at room temperature with shaking/rocking for 20-50 minutes to allow for lysis to take place. After this time, the cell lysate plate was transferred to ice to set up for the RT-qPCR reactions. The lysates could also be frozen at −80° C. for later use.
(§8) To set up 10 uL RT-qPCR reactions, cell lysates were transferred to 384-well qPCR plates containing the master mix according to the table below. The plates were sealed, gently vortexed, and spun down before the run. The volumes were adjusted accordingly in some instances where the reaction was carried in 20 μL. The table below summarizes the components of the RT-qPCR reactions:
(§9) The RT-qPCR reaction was performed using a QuantStudio (ThermoFisher) under the following fast cycling conditions. […]

[3] = tested on: MYB mRNA; test: Splicing RT-qPCR assay, MYB canonical (CJ) and alternative (AJ) junction mRNA; format: cell-based, human; conditions: Homo sapiens; for IC50: canonical junction mRNA; for AC50: alternative junction mRNA, read-out: MYB AJ (AC50, increase in AJ mRNA)
Procedure: as §1, §2, §3, §4, §5, §6

[4] = tested on: SMN2 mRNA; test: Splicing RT-qPCR panel, SMN2 canonical junction (CJ) mRNA; format: cell-based, human; conditions: Homo sapiens, read-out: SMN2 CJ (decrease in CJ mRNA levels, IC50)
Procedure: as §1, §3, §4, §5, §7, §8, §9

[5] = tested on: K562 cells; test: Cell viability, Cell Titer Glo 2.0 assay, K562; conditions: 72 hours
[6] = 24 h, RT-qPCR, A673 or K562 cells, 24 hours treatment, read-out: HTT CJ (IC50, decrease in CJ mRNA)
[7] = qPCR panel, read-out: HTT CJ (decrease in CJ mRNA levels, IC50)
[8] = RT-qPCR, A673 or K562 cells, 24 hours treatment
[9] = qPCR panel, read-out: MYB CJ (decrease in CJ mRNA levels, IC50)
[10] = RT-qPCR, A673 or K562 cells, 24 hours treatment, read-out: MYB CJ (IC50, decrease in CJ mRNA)

IC50 [1, 6]	IC50 [1, 7]	IC50 [2]	IC50 [3, 9]	IC50 [3, 10]	IC50 [4]	Structure (SMILES)	AC50 [1, 8]	AC50 [3, 8]	Effect on Cell Viability, K562 [5]	IC50 ([1]; RT-qPCR, A673 or K562 cells, 24 hours treatment, read-out: HTT CJ (IC50, decrease in CJ mRNA))
100 to 1000 nM	100 to 1000 nM	1000 to 10000 nM	100 to 1000 nM	100 to 1000 nM	< 100 nM	Cc1c(O)c(-c2ccc3nc(N4CCNC(C)C4)cnc3n2)cc2cn(C)nc12 (stereo not shown) [Cmpd 196]	1000 to 10000 nM	< 100 nM		
100 to 1000 nM	100 to 1000 nM	100 to 1000 nM	< 100 nM	< 100 nM	< 100 nM	CNC1CCN(c2cnc3nc(-c4cc5cn(C)nc5c(C)c4O)ccc3c2)C1 (stereo not shown) [Compound 113, 2,7-dimethyl-5-{6-[3-(methylamino)pyrrolidin-1-yl]-1,8-naphthyridin-2-yl}indazol-6-ol]	100 to 1000 nM	< 100 nM		
< 100 nM	< 100 nM	< 100 nM	< 100 nM	< 100 nM	< 100 nM	Cn1cc2cc(-c3cnc4cc(C5CCNCC5)cc(F)c4n3)c(O)c(F)c2n1 [Compound 164, 7-fluoro-5-[8-fluoro-6-(piperidin-4-yl)quinoxalin-2-yl]-2-methylindazol-6-ol]	< 100 nM	< 100 nM		
> 10000 nM	> 10000 nM	1000 to 10000 nM	< 100 nM	< 100 nM		C[C@H]1CN(c2cnc3nc(-c4cc(F)c5nn(C)cc5c4)ccc3c2Cl)CCN1 [Compound 385, 5-chloro-2-(7-fluoro-2-methylindazol-5-yl)-6-[(3S)-3-methylpiperazin-1-yl]-1,8-naphthyridine]	1000 to 10000 nM	100 to 1000 nM	A (<100 nM)	
1000 to 10000 nM	1000 to 10000 nM	> 10000 nM	100 to 1000 nM	100 to 1000 nM		Cn1cc2cc(-c3cc(Cl)c4cc(N5CC[C@@H](N6CCC6)C5)cnc4n3)c(O)cc2n1 [Compound 386]	1000 to 10000 nM	100 to 1000 nM	B (100-1000 nM)	
100 to 1000 nM	100 to 1000 nM	1000 to 10000 nM	< 100 nM	< 100 nM		Cn1cc2cc(-c3cc(Cl)c4cc(N5CC[C@@H](NCCF)C5)cnc4n3)c(O)cc2n1 [Compound 387, 5-{4-chloro-6-[(3R)-3-[(2-fluoroethyl)amino]pyrrolidin-1-yl]-1,8-naphthyridin-2-yl}-2-methylindazol-6-ol hydrochloride]	100 to 1000 nM	< 100 nM	B (100-1000 nM)	
> 10000 nM	> 10000 nM	1000 to 10000 nM	100 to 1000 nM	100 to 1000 nM		C[C@@H]1CN(c2cnc3nc(-c4cc(F)c5nn(C)cc5c4)ccc3c2Cl)C[C@H](C)N1 [Compound 391]	1000 to 10000 nM	100 to 1000 nM	B (100-1000 nM)	
1000 to 10000 nM	1000 to 10000 nM	1000 to 10000 nM	100 to 1000 nM	100 to 1000 nM		Cc1cn2nc(-c3ccc4c(Cl)c(N5C[C@@H](C)N[C@@H](C)C5)cnc4n3)cc(C)c2n1 [Compound 392]	1000 to 10000 nM	100 to 1000 nM	B (100-1000 nM)	
100 to 1000 nM	100 to 1000 nM	1000 to 10000 nM	< 100 nM	< 100 nM		Cc1c(N2C[C@H](C)N[C@@H](C)C2)cnc2nc(-c3cc4cn(C)nc4c(C)c3O)ccc12 [Compound 395, 5-{6-[(3S,5S)-3,5-dimethylpiperazin-1-yl]-5-methyl-1,8-naphthyridin-2-yl}-2,7-dimethylindazol-6-ol]	1000 to 10000 nM	100 to 1000 nM	B (100-1000 nM)	
> 10000 nM	> 10000 nM		1000 to 10000 nM	1000 to 10000 nM	< 100 nM	Cc1c(N2C[C@@H](C)N[C@@H](C)C2)cnc2nc(-c3cc4cn(C)nc4cc3O)ccc12 [Compound 487]	> 10000 nM	1000 to 10000 nM		
1000 to 10000 nM	1000 to 10000 nM		< 100 nM	< 100 nM	< 100 nM	C[C@@H]1CN(c2cnc3nc(-c4cc5cn(C)nc5cc4O)ccc3c2Cl)C[C@H](C)N1 [Compound 492]	1000 to 10000 nM	< 100 nM		
< 100 nM	< 100 nM		< 100 nM	< 100 nM	< 100 nM	Cn1cc2cc(-c3cc(Cl)c4cc(N5CC[C@H](NC(C)(C)C)C5)cnc4n3)c(O)c(F)c2n1 [Compound 497]	100 to 1000 nM	< 100 nM		
> 10000 nM	> 10000 nM		100 to 1000 nM	100 to 1000 nM	< 100 nM	Cn1cc2cc(-c3cc(Cl)c4cc(N5CC[C@@H](NC(C)(C)C)C5)cnc4n3)c(O)c(F)c2n1 [Compound 498]	> 10000 nM	100 to 1000 nM		
1000 to 10000 nM	1000 to 10000 nM		100 to 1000 nM	100 to 1000 nM	< 100 nM	Cn1cc2cc(-c3ccc4c(Cl)c(N5CCNC6(CC6)C5)cnc4n3)c(O)cc2n1 [Compound 500, 5-[5-chloro-6-(4,7-diazaspiro[2.5]octan-7-yl)-1,8-naphthyridin-2-yl]-2-methyl-indazol-6-ol]	1000 to 10000 nM	100 to 1000 nM		

Structure (SMILES)	IC50 [1, 6]	IC50 [1, 7]	IC50 [2]	IC50 [3, 9]	IC50 [3, 10]	IC50 [4]	AC50 [1, 8]	AC50 [3, 8]	Effect on Cell Viability, K562 [5]	IC50 ([1]; RT-qPCR, A673 or K562 cells, 24 hours treatment, read-out: HTT CJ (IC50, decrease in CJ mRNA))
Cl.Cn1cc2cc(-c3cc(Cl)c4cc(N5CC[C@H](NCCF)C5)cnc4n3)c(O)cc2n1 [Compound 389]		1000 to 10000 nM	1000 to 10000 nM	100 to 1000 nM	100 to 1000 nM		1000 to 10000 nM	< 100 nM	B (100-1000 nM)	1000 to 10000 nM
